Measurements reported in PubChem BioAssay (NCI).
Where “and” joins values, the source holds several entries; their conditions need not be identical. Equal values may be shown once.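 Following 48 hours of exposure in 96-well plates, responses at five concentrations were used to interpolate endpoints linearly. GI50: concentration for 50% inhibition of growth. TGI is the concentration that stops growth completely.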

Columns and labels:
Test in all cases: inhibition of tumour cell growth, NCI panel, 48 h
NCI-H460 lung = test system: NCI-H460 lung
SNB-19 CNS = test system: SNB-19 CNS
MOLT-4 leukemia = test system: MOLT-4 leukemia
OVCAR-8 ovarian = test system: OVCAR-8 ovarian
NCI/ADR-RES ovarian = test system: NCI/ADR-RES ovarian
EKVX NSCLC = test system: EKVX NSCLC
SF-295 CNS = test system: SF-295 CNS
SF-268 CNS = test system: SF-268 CNS
UO-31 renal = test system: UO-31 renal
SK-MEL-28 melanoma = test system: SK-MEL-28 melanoma

SMILES | GI50 (NCI-H460 lung) [µM] | TGI (NCI-H460 lung) [µM] | GI50 (SNB-19 CNS) [µM] | TGI (SNB-19 CNS) [µM] | GI50 (MOLT-4 leukemia) [µM] | TGI (MOLT-4 leukemia) [µM] | GI50 (OVCAR-8 ovarian) | TGI (OVCAR-8 ovarian) | GI50 (NCI/ADR-RES ovarian) [µM] | TGI (NCI/ADR-RES ovarian) [µM] | GI50 (EKVX NSCLC) | TGI (EKVX NSCLC) [µM] | GI50 (SF-295 CNS) | TGI (SF-295 CNS) [µM] | GI50 (SF-268 CNS) | TGI (SF-268 CNS) [µM] | GI50 (UO-31 renal) [µM] | TGI (UO-31 renal) [µM] | GI50 (SK-MEL-28 melanoma) | TGI (SK-MEL-28 melanoma)
CCNNC(=O)[C@@H]1[C@H](c2cc(OC)c(OC)c(OC)c2)c2cc3c(cc2[C@H](O)[C@H]1CO)OCO3 | 0.343 | > 100 | 0.452 | > 100 | 0.4 | > 100 | 0.692 µM | > 100 µM | 0.509 | 17.7 | 0.519 µM | > 100 | 0.32 µM | > 100 | 1.31 µM | > 100 | 4.32 | > 100 | 0.599 µM | > 100 µM
Cn1cnc2c(F)c(Nc3ccc(Br)cc3F)c(C(=O)NOCCO)cc21 | > 100 | > 100 | 4.37 | > 100 | > 100 | > 100 | > 2.17 µM and 99.7 µM | > 100 µM | > 100 | > 100 | 0.109 µM and 0.503 µM | > 100 | > 67.7 µM | > 100 | > 2.05 µM and 50.5 µM | > 100 | 7.41 | > 100 | 0.0269 µM and 0.0304 µM | 0.321 µM and 0.889 µM
FC(F)(F)c1cccc2c(SCCc3n[nH]c(=S)o3)ccnc12 | 67.4 | > 100 | 54.2 | > 100 | 31.2 | > 100 | 36.5 µM | > 100 µM | 38 | > 100 | 27.6 µM | > 100 | 48.7 µM | > 100 | 85.6 µM | > 100 | 25.4 | > 100 | 82.9 µM | > 100 µM
O=C1c2ccccc2-c2c1c1ccc([N+](=O)[O-])cc1c(=O)n2CCCNCCO | 0.025 | 0.343 | 0.107 | 1.82 | 0.0374 | 1.4 | 0.225 µM | 3.64 µM | 0.65 | 3.19 | – | > 21 | 0.0729 µM | 1.44 | 0.148 µM | 1.99 | 0.0989 | 1.06 | 1.27 µM | 2.62 µM
O=C(N/N=C/c1ccc(Cl)cc1Cl)c1ccc2nc(-c3ccc(Cl)cc3)[nH]c2c1 | 1.56 | 3.13 | 2.34 | 5.06 | 1.55 | 4.81 | 2.11 µM | 4.74 µM | 1.83 | 4.44 | 1.82 µM | 3.68 | 1.86 µM | 3.5 | 2.08 µM | 4.35 | 1.58 | 2.99 | 1.58 µM | 3.04 µM
OCC(CCc1c[nH]c2ccccc12)c1c[nH]c2ccccc12 (configuration not stated) | – | 28 | – | 30.5 | – | 52.1 | – | 46.6 µM | – | 44.1 | – | 30.3 | – | 42.9 | – | 32.4 | – | 25.9 | – | 36.6 µM
COc1cc2c3c(n(CCCBr)c(=O)c2cc1OC)-c1ccc(F)cc1C3=O | 2.38 | 47.2 | 6.34 | > 100 | 2.89 | 10.6 | 26.4 µM | > 100 µM | 13.3 | > 100 | 49.5 µM | > 100 | 1.69 µM | 9.23 | 10.4 µM | > 100 | 5.57 | 60.4 | 39.8 µM | > 100 µM
Cc1cnccc1N=Nc1ccc(N(C)C)cc1 | – | > 100 | – | > 100 | – | 79.5 | – | 60.1 µM | – | 46.4 | – | 32.9 | – | 57.5 | – | 56.5 | – | > 100 | – | 52.7 µM
COC(=O)[C@H](C)NC(=O)[C@@H](OC)[C@@H]1Cc2cc3cc(OC4CC(OC5CC(O)C(O)C(C)O5)C(O)C(C)O4)c(C)c(O)c3c(O)c2C(=O)[C@H]1OC1CC(OC2CC(OC3CC(C)(O)C(O)C(C)O3)C(O)C(C)O2)C(O)C(C)O1 (some centres not stated) | 0.0344 | > 50 | 0.132 | > 50 | 0.232 | 4.13 | 0.0461 µM | > 50 µM | 12.3 | > 50 | 0.174 µM | 35.5 | 0.0885 µM | > 50 | 0.092 µM | > 50 | 0.182 | 3.09 | 0.0309 µM | 0.351 µM
CC(C)C[C@H](NC(=O)[C@H](Cc1cccc2ccccc12)NS(=O)(=O)c1cccc2cccnc12)B(O)O | 0.0618 | 1.35 | – | > 35.3 | 0.000334 | 0.00228 | 0.117 µM | 0.409 µM and 2.9 µM | – | 17.7 | 0.109 µM | > 100 | 0.0614 µM and 0.0596 µM | – | – | – | 0.353 | 1.06 | 0.000701 µM | 0.0116 µM
C=C1C(OC/C=C/COC2O[C@@H]3O[C@@]4(C)CC[C@H]5[C@H](C)CC[C@@H](C2=C)[C@@]35OO4)O[C@@H]2O[C@@]3(C)CC[C@H]4[C@H](C)CC[C@@H]1[C@@]24OO3 (some centres not stated) | 5.18 | 27.2 | 30.8 | > 100 | 0.309 | > 100 | 1.96 µM | > 36.6 µM | 0.203 | 18.1 | 11.5 µM | 31.9 | – | 2.19 | 5.87 µM | 30.9 | 2.23 | > 39.4 | 12.3 µM | 52.2 µM
O=c1oc2c3ccc4cnccc4c3[nH]c2c2ccccc12 | 9.35 | 30.2 | 18.5 | > 100 | 4.83 | 25.4 | 16.1 µM | > 100 µM | 66.4 | > 100 | 76.5 µM | > 100 | 41.7 µM | > 100 | 13.1 µM | > 100 | 22.9 | > 100 | 16.4 µM | 32 µM
COc1ccc(-c2cc(-c3cccc(NS(C)(=O)=O)c3)nc(N)c2C#N)cc1 | 0.0871 | 10.8 | 0.158 | > 84 | 0.235 | > 100 | 0.222 µM | 34.6 µM | 0.0603 | 1.1 | 0.525 µM | > 81.6 | 0.0497 µM | 2.87 | 0.281 µM | 22 | 0.124 | > 43.7 | 0.18 µM | 47.2 µM
COc1ccc(-c2ccc(-c3ccc(C(=N)N)cn3)o2)cc1Cl | 1.89 | 3.63 | 1.79 | 3.4 | – | – | – | – | 2.56 | 8.09 | 2 µM | 4.26 | 1.65 µM | 3.27 | 2.67 µM | 8.38 | 1.43 | 2.76 | 1.69 µM | 3.22 µM
C=C(CNC(=O)c1ccccc1)c1ccc(C(=O)Nc2ccccc2N)cc1 | 8.02 | > 100 | 80.2 | > 100 | 1.49 | > 100 | 5.61 µM | > 100 µM | 2.35 | > 100 | > 100 µM | > 100 | 12.5 µM | > 100 | 11.7 µM | > 100 | 2.78 | > 100 | 14 µM | > 100 µM
CCOc1nccc2c1nc(-c1nonc1N)n2CC | > 25 | > 25 | > 25 | > 25 | > 25 | > 25 | > 25 µM | > 25 µM | > 25 | > 25 | > 25 µM | > 25 | > 25 µM | > 25 | > 25 µM | > 25 | > 18.4 | > 25 | > 25 µM | > 25 µM
CSc1ccc(SC2c3ccc(C)cc3Oc3nc(N)c(C#N)c(N)c32)cc1 (configuration not stated) | 2.03 | 4.07 | 1.77 | 3.16 | 2.39 | 6.05 | 1.79 µM | 3.18 µM | 2.22 | 5.46 | 1.6 µM | 2.99 | 1.58 µM | 2.97 | 1.7 µM | 3.33 | 1.2 | 2.43 | 1.83 µM | 3.29 µM
O=C(CCSc1ccnc2c(C(F)(F)F)cccc12)N/N=C/c1cc(Cl)c(Cl)cc1Cl | 25.4 | 54.5 | 21.9 | 48.5 | 32.2 | 98.8 | 32.5 µM | 86 µM | 23 | 49.7 | 38.1 µM | > 100 | 26.4 µM | 62.3 | 23.2 µM | 50.3 | 20.6 | 49.2 | 17 µM | 32.5 µM
COc1cc(NC(=O)NCc2ccco2)ccc1-c1ccc(NC(=O)NCc2ccco2)cc1OC | 0.526 | > 100 | 3.22 | 17.2 | 20.3 | > 100 | 1.88 µM | 11.7 µM | > 100 | > 100 | 3.26 µM | 31 | 1.25 µM | 14.4 | 0.98 µM | 13.6 | 4.4 | 55.8 | 1.5 µM | 5.33 µM
NCCCN1CCN(CCCNc2nc3ccccc3c3[nH]c4ccccc4c23)CC1 | 0.32 | 1.42 | 0.34 | 2.07 | 0.155 | 4.02 | 0.131 µM | 3.88 µM | 3.1 | 22 | 1.31 µM | 6.22 | 0.474 µM | 1.83 | 0.316 µM | 1.94 | 0.771 | 11.8 | 0.888 µM | 2.32 µM
COc1ccc(Cn2cc3c(c2-c2cc(OC)c(OC)c(OC)c2)CCc2cnoc2-3)cc1N | 0.0377 | 5.22 | 0.0621 | > 100 | 0.0648 | > 45.9 | 0.0702 µM | > 100 µM | 0.0357 | > 100 | 0.235 µM | > 100 | 0.0369 µM | > 100 | 0.0792 µM | > 100 | 0.228 | > 50.9 | 0.0797 µM | > 100 µM
CCC1(NC(=O)c2cc(F)c(F)c(F)c2F)C(=O)NC(=O)N(C(C)C)C1=O (configuration not stated) | 49.7 | > 100 | 19.6 | 42.2 | 22.6 | 78.8 | 34.6 µM | > 100 µM | 31.8 | 88.3 | 24.6 µM | 97 | 27.4 µM | 87.3 | 19.1 µM | 37 | > 100 | > 100 | 14.5 µM | 45 µM
COc1c(Cl)ccc2c(-c3nc4cc(Cl)c(F)cc4s3)cc(=O)oc12 | 33.2 | > 100 | > 43.4 | > 72.3 | 4.1 | > 100 | 11.2 µM | > 100 µM | 8.76 | > 100 | – | – | 10.4 µM | 52 | 2.93 µM | 8.89 | 1.44 | 3.15 | 26.5 µM | > 78 µM
N#C/C(=C\c1c(-c2ccccc2)[nH]c2ccccc12)C(=O)c1ccccc1 | 4.52 | > 100 | 16.8 | > 100 | – | – | 21.7 µM | > 100 µM | 3.11 | > 100 | 9.97 µM | > 100 | 3 µM | > 100 | 5.73 µM | 58.9 | 30.5 | > 100 | 12 µM | > 100 µM
CN(C)CCSCCO | – | > 100 | – | > 100 | – | – | – | > 100 µM | – | > 100 | – | > 100 | – | > 100 | – | > 100 | – | > 100 | – | > 100 µM
Nc1c(C(=O)N/N=C/c2ccc(-c3cc(Cl)c(Cl)cc3Cl)o2)cnn1-c1ccnc2c(C(F)(F)F)cccc12 | 3.73 | 16.9 | 4.17 | > 100 | 2.91 | > 100 | – | – | 3.58 | 87.9 | 3.09 µM | 49.1 | 3.27 µM | > 100 | 5.2 µM | > 100 | 3.49 | > 100 | 4.03 µM | > 100 µM
